Reference: patent publication US20230357179A1, “RAF KINASE INHIBITORS AND METHODS OF USE THEREOF” (Deciphera Pharmaceuticals, LLC, priority 2021, published 2023)

Legend:
B-Raf kinase = biological target: T1, B-Raf kinase (Homo sapiens, UniProt P15056); experiment: Biochemical assay for B-Raf.1 (coupled pyruvate kinase/lactate dehydrogenase); conditions: read-out: BRAF.1 IC50
T1 construct: GST (N); purchased Sigma
Method in brief: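 Reaction rates over the 4–5 h window of a continuous 6 h, 30 °C read were converted to percent inhibition and fitted for IC50. B-Raf (0.13 nM) phosphorylated 30.1 nM MEK with 1 mM ATP; ADP coupled via PK/LDH to NADH loss at 340 nm, 1% DMSO final.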

C-Raf kinase = biological target: T2, C-Raf kinase (Homo sapiens, UniProt P04049, Y340D/Y341D); experiment: Biochemical assay for C-Raf.1 (coupled pyruvate kinase/lactate dehydrogenase); conditions: read-out: CRAF.1 IC50
T2 construct: Y340D,; GST (N); purchased Sigma
Method in brief: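 NADH depletion at 340 nm monitored continuously for 6 h at 30° C, with rates taken over 4–5 h. The coupled pyruvate kinase/lactate dehydrogenase reaction used 1 mM ATP, 30.1 nM MEK substrate and 0.43 nM kinase at pH 7.5. IC50 was fitted sigmoidally from percent inhibition of serially diluted compound.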

H2405 cells = experiment: H2405 cell proliferation assay (1), resazurin, 96-well; assay type: cell-based; conditions: Homo sapiens, NCI-H2405, inhibition of cell proliferation
Experimental: H2405 Cell Proliferation Assay (1)
H2405 cells (catalog #CRL-5944) are obtained from the American Type Culture Collect (ATTC, Manassas, VA). Briefly, cells were grown in RPMI 1640 supplemented with 5% characterized fetal bovine serum (Invitrogen, Carlsbad, CA) and 1% Penicillin/Streptomycin/L-Glutamine at 37° C., 5% CO2, and 95% humidity. Cells are expanded until reaching 70-95% confluency at which point they are subcultured or harvested for assay use. A serial dilution of test compound is dispensed into a 96-well black clear bottom plate in triplicate. Three thousand cells are added per well in 200 μL complete growth medium in the 96-well plate. Plates are incubated for 67-72 hours at 37° C., 5% CO2, and 95% humidity. At the end of the incubation, 40 μL of a 440 μM solution of resazurin (Sigma, St. Louis, MO) in PBS is added to each well of the plate and plates are incubated for an additional 5-6 hours at 37° C., 5% CO2, and 95% humidity. Plates are read on a Synergy2 or equivalent reader (Biotek, Winooski VT) using an excitation of 540 nm and an emission of 600 nm. Data is analyzed using Prism software (GraphPad, San Diego, CA) to calculate IC50 values.

B-Raf (V600E) kinase = biological target: T3, B-Raf (V600E) kinase (Homo sapiens, UniProt P15056, V600E); experiment: Biochemical assay for B-Raf (V600E).1 (coupled pyruvate kinase/lactate dehydrogenase); conditions: read-out: BRAF V600E.1 IC50
T3 construct: B-Raf (V600E) residues 416-766 with a; GST (N); purchased SignalChem
Method in brief: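 IC50 came from four-parameter sigmoidal fits of percent inhibition, using reaction rates over 3-4 h. Continuous A340 reading (6 h, 30 °C) of a pyruvate kinase/lactate dehydrogenase-coupled reaction: B-Raf V600E 0.03 nM, MEK 30.1 nM, ATP 1 mM, Tris pH 7.5, 1% DMSO.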

T3 sequence (P15056 416-766 V600E): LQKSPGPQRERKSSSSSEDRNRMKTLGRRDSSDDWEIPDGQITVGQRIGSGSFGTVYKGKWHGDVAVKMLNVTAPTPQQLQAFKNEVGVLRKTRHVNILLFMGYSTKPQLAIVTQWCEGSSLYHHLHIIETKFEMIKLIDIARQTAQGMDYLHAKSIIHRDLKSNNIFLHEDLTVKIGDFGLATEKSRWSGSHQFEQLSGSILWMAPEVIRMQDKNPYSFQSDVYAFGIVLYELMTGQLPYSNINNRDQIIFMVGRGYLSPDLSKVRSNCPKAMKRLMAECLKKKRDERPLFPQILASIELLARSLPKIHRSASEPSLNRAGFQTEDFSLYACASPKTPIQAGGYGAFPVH
T1 sequence (P15056 416-766): as the sequence (P15056 416-766 V600E) above, with E185V counted along it
T2 sequence (P04049 307-648 Y340D/Y341D): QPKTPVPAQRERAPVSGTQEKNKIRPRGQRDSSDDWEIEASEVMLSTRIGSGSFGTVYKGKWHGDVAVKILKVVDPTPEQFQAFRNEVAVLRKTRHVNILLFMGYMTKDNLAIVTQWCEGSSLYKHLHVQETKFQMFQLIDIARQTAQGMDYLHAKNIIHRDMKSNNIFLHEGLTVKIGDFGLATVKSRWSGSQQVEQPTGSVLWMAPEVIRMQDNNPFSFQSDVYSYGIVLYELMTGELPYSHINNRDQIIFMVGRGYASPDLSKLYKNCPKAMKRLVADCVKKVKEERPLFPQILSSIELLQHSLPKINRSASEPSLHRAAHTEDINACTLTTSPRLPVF

| Compound | IC50 (B-Raf kinase) [nM] | IC50 (C-Raf kinase) [nM] | IC50 (H2405 cells) [nM] | IC50 (B-Raf (V600E) kinase) [nM] |
| --- | --- | --- | --- | --- |
| COC[C@@H]1CCN(C(=O)Nc2cc(-c3cc(-c4ccnc(NC(=O)OC)c4)cnn3)c(C)cc2F)C1 [Example 149] | 500 to 1000 | 500 to 1000 | 1000 to 10000 | ≤ 100 |
| COC(=O)Nc1cc(-c2cnnc(-c3cc(NC(=O)N4CCC(CC(F)(F)F)C4)c(F)cc3C)c2)ccn1 (stereo not shown) [Example 150] | ≤ 100 | ≤ 100 | 500 to 1000 | ≤ 100 |
| COC(=O)Nc1cc(-c2cc(-c3cc(NC(=O)NCCC4(C)CC4)cnc3C)cc(OCCO)n2)ccn1 [Example 151] | ≤ 100 | ≤ 100 | 100 to 500 | ≤ 100 |
| COC[C@H]1CCN(C(=O)Nc2cnc(C)c(-c3cc(OCCO)nc(-c4ccnc(NC(=O)OC)c4)c3)c2)C1 [Example 152] | 100 to 500 | 100 to 500 | 1000 to 10000 | ≤ 100 |
| COC(=O)Nc1cc(-c2cnnc(-c3cc(NC(=O)NCCC(C)(C)OC)cnc3C)c2)ccn1 [Example 153] | 500 to 1000 | 500 to 1000 | 1000 to 10000 | ≤ 100 |
| CNC(=O)c1cc(-c2cnnc(-c3cc(NC(=O)NCCC(C)(C)OC)cnc3C)c2)ccn1 [Example 154] | > 1000 | > 1000 | 1000 to 10000 | ≤ 100 |
| COC(=O)Nc1cc(-c2cc(-c3cc(NC(=O)NCCC4COC4)c(F)cc3C)cc(OCCO)n2)ccn1 [Example 155] | ≤ 100 | ≤ 100 | 1000 to 10000 | ≤ 100 |
| COC(=O)Nc1cc(-c2cc(-c3cc(NC(=O)NC4CC(C)(C)C4)cnc3C)cc(OCCO)n2)ccn1 [Example 156] | ≤ 100 | ≤ 100 | 100 to 500 | ≤ 100 |
| COC(=O)Nc1cc(-c2cc(-c3cc(NC(=O)N[C@H]4C[C@](C)(F)C4)cnc3C)cc(OCCO)n2)ccn1 [Example 157] | ≤ 100 | ≤ 100 | 1000 to 10000 | ≤ 100 |
| COC(=O)Nc1cc(-c2nc(OCCO)cc(-c3cc(NC(=O)NC4CC(C)(C)C4)c(F)cc3C)n2)ccn1 [Example 158] | ≤ 100 | ≤ 100 | ≤ 100 | ≤ 100 |
| Cc1cc(F)c(NC(=O)NCCC(C)(C)F)cc1-c1ccnc(-c2ccnc(NC(=O)C3CC3)c2)c1 [Example 159] | ≤ 100 | ≤ 100 | 100 to 500 | ≤ 100 |
| COC[C@@H]1CCN(C(=O)Nc2cnc(C)c(-c3cc(OCCO)nc(-c4ccnc(NC(=O)OC)c4)c3)c2)C1 [Example 160] | 100 to 500 | 100 to 500 | 1000 to 10000 | ≤ 100 |
| COC(=O)Nc1cc(-c2nc(OCCO)cc(-c3cc(NC(=O)NCCC(C)(C)F)c(F)cc3C)n2)ccn1 [Example 161] | ≤ 100 | ≤ 100 | ≤ 100 | ≤ 100 |
| COC(C)(C)CCNC(=O)Nc1cc(-c2ccnc(-c3ccnc(NC(=O)C4CC4)c3)c2)c(F)cc1F [Example 162] | ≤ 100 | ≤ 100 | 1000 to 10000 | ≤ 100 |
| COC(=O)Nc1cc(-c2cc(-c3cc(NC(=O)NCCC(C)(C)OC)c(F)cc3F)ccn2)ccn1 [Example 163] | 100 to 500 | 100 to 500 | 1000 to 10000 | ≤ 100 |
| CNC(=O)c1cc(-c2cc(-c3cc(NC(=O)NCCC4(C)CC4)c(F)cc3C)cc(OCCO)n2)ccn1 [Example 164] | ≤ 100 | ≤ 100 | 100 to 500 | ≤ 100 |
| COC(=O)Nc1cc(-c2cc(-c3cc(NC(=O)NCCC(C)(C)F)cnc3C)cc(OCCO)n2)ccn1 [Example 165] | ≤ 100 | ≤ 100 | 100 to 500 | ≤ 100 |
| COC(=O)Nc1cc(-c2cc(-c3cc(NC(=O)N4CCC(C)(C)CC4)cnc3C)cc(OCCO)n2)ccn1 [Example 166] | 100 to 500 | ≤ 100 | 500 to 1000 | ≤ 100 |
| Cc1cc(F)c(NC(=O)NC2CC(C)(C)C2)cc1-c1cc(OCCO)nc(-c2ccnc(NC(=O)C3CC3)c2)n1 [Example 167] | ≤ 100 | ≤ 100 | ≤ 100 | ≤ 100 |
